From paper PMC6639804 (The Biochemical journal, 2018)

Molecular target: T1, Cnx1E (Arabidopsis thaliana, UniProt Q39054)
T1 sequence (Q39054 1-452): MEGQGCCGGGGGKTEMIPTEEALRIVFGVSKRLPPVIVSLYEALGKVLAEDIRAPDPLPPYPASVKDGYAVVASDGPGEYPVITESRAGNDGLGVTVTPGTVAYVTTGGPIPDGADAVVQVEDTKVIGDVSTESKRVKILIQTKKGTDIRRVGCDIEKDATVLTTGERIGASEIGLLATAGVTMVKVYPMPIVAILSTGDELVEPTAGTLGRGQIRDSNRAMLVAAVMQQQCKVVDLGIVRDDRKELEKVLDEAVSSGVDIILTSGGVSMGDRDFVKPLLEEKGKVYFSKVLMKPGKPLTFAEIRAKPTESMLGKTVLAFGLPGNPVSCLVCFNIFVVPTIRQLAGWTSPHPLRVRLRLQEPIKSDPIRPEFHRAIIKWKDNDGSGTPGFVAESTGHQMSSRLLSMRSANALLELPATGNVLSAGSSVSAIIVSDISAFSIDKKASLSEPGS
Assay: co-purified ligand, FormA-based HPLC
Type: binding
Settings: co-purified from E. coli RK5206, not added; phosphodiesterase I treated sample

Structure (SMILES): Nc1nc2c(c(=O)[nH]1)N[C@H]1C(S)=C(S)[C@@H](COP(=O)(O)OP(=O)(O)OC[C@H]3O[C@@H](n4cnc5c(N)ncnc54)[C@H](O)[C@@H]3O)O[C@H]1N2 [MPT-AMP]
- binding stoichiometry: 0.0136 +/− 0.0048
